From paper PMC7496275, “Pentathiepins: A Novel Class of Glutathione Peroxidase 1 Inhibitors that Induce Oxidative Stress, Loss of Mitochondrial Membrane Potential and Apoptosis in Human Cancer Cells” (Chemmedchem, 2020)

Tests used:
[1] = tested on: HL-60 cells; assay: Apoptosis staining with Annexin-V/PI (flow cytometry); assay type: cell-based, human; details: multiples of viability IC50, 24 h
Protocol: (§1) To determine whether the loss in viability by 4 is caused by apoptosis, a flow cytometric analysis with Annexin‐V−FITC and PI‐stained cells was used. Early apoptotic cells undergo a translocation of phosphatidyl serine from the inner to the outer cell membrane monitored by Annexin‐V−FITC. Late apoptotic or necrotic cells also show a loss of cell membrane integrity verifiable by PI. Cells were exposed to 4 in multiple concentrations of the viability inhibition IC50 for 6 and 24 h.
(§2) Apoptosis staining with Annexin‐V/PI: For the apoptosis measurement, the translocation of phosphatidyl serine from the inner to the outer membrane by Annexin‐V and PI double staining was used.41 The protocol of the manufacturer (Miltenyi Biotec, Germany) of the “Annexin‐V‐FITC Apoptosis Detection Kit” was followed. In brief, 500,000 cells were seeded into 6‐well plates and exposed to 4 at multiple concentrations of the viability IC50 for 6 and 24 h. Afterwards, the cells were collected in reaction tubes, washed with the binding buffer belonging to the Annexin‐V‐Kit and stained with Annexin‐V‐FITC for 10 min. After repeated washing steps, the PI solution was added to the cells and followed by the flow cytometry investigation analyses at λ ex/em=488/525±50 nm for FITC and λ ex/em=488/655–730 nm for PI with a MACSQuant Analyzer 10 (Miltenyi Biotec).

[2] = tested on: Gumbus cells; assay: as above; assay type: cell-based, human
Protocol: as §1, §2

[3] = target: T1, bovine GPx1 (Bos taurus, UniProt P00435); assay: Jump-dilution experiments for reversibility of GPx1 inhibition; assay type: biochemical; details: 30 min pre-incubation at 23 °C, 100-fold jump-dilution
T1 construct: 180 μL of a bovine erythrocyte GPx1 solution (0.125 U/mL); purchased Sigma Aldrich (Taufkirchen, Germany); host or cells: bovine erythrocytes
T1 sequence (P00435 1-205): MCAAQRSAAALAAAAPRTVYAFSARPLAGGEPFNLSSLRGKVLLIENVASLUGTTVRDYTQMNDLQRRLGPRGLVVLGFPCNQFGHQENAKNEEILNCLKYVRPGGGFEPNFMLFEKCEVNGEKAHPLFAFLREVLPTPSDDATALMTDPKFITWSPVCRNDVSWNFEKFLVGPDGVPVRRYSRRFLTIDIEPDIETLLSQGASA
Protocol: No difference in the inhibitory activity of 4 after jump‐dilution (Figure 4B left, a) was observed compared to expected inhibition at 0.25 μM (Figure 4B left, 0.25 μM), evidence that GPx1 inhibition is reversible. […] This is consistent with findings that MSA can act as an irreversible inhibitor of GPx1.11 In further jump‐dilution experiments, we pre‐incubated both inhibitors with the assay concentrations of either GSH and TBHP (a, d) or GSH only (b, e), with (a–c) and without (d–f) GPx1 for 30 min.
The jump‐dilution experiments were carried out in a 96‐well plates at room temperature. To each well was added 75 μL of a 20 IU mL^−1 GPx stock‐solution followed by the addition of 3 μL of a 2.5 mM solution of 4 in DMF and 30 μL of a 2.5 mM solution of GSH in buffer or 30 μL of a 2.5 mM solution of GSH in buffer and 30 μL of a 5 mM solution of TBHP in water and 300 μL buffer. The plates were shaken for 30 min in the dark, then each well was diluted 100 fold into a second plate prepared for the GPx‐assay. The enzyme activity was immediately measured as described above.

[4] = tested on: SISO cell line; assay: MTT viability with ferrostatin-1 co-treatment (ferroptosis probe); assay type: cell-based, human; details: ferrostatin-1 1.5-6.0 μM, MTT 48 h
From the text: Another form of programmed cell death is ferroptosis, which is iron dependent and activated by lipid peroxidation (LPO) in the cell membrane.14 Unlike apoptosis, PARP cleavage is not observed in this cell death mechanism. GPx4, a membrane bound isoenzyme of GPx1, is believed to be a key protector of cells from ferroptosis by destroying lipid peroxides in the cell membrane.
MTT cell viability assay: For the detection of the inhibition of the viability of cells by the pentathiepins, the MTT‐viability assay was used.37 Briefly, 10 000 and 20 000 cells for the suspension cell lines HL‐60 and Gumbus, respectively, were seeded out in 50 μL medium per well and immediately exposed to the compounds. For the adherent cell lines SISO and HAP‐1, 3000 and 5000 cells, respectively, were seeded out in 96‐well plates and allowed to attach for 24 h. Cells were exposed to nine serial dilutions of compound, added to the medium from 1000‐fold concentrated stock solution in DMF. For the controls, cells were exposed to 0.1 % DMF alone. After 48 h incubation, 20 μL of the MTT stock solution (2.5 mg/mL in PBS) were added to each well to give a final concentration of 1.0 mM. […] Optical density was measured with a SpectraMax Plus 383 microtiter plate read at λ=570 nm (Molecular Devices, USA). […]

reversibility of GPx1 inhibition [3]: reversible
SMILES: CCOc1c2c(c3cnc4cc(C)c(C)cc4n13)SSSSS2 [Compound 4]
apoptotic population [1]: significant increase of an apoptotic population
apoptotic population ([2]; fourfold IC50 concentration, 6 h): nearly every cell was apoptotic
apoptotic population ([2]; multiples of viability IC50, 6 h): significant increase of an apoptotic population
change of IC50 on co-treatment with ferrostatin-1 [4]: No significant changes in the IC50 value
